# Entries after “also recorded” stand apart in the source; their conditions may differ.
# Legend:
# iNOS [1] = experiment: In vitro iNOS catalytic activity in cell-free extracts preincubated with drug (L-[3H]-arginine to L-[3H]-citrulline); type: biochemical, murine; details: for inhibition of iNOS catalytic activity in cell-free extracts (specific activity in in vitro assay): 1 mM
# COX = details: cited from earlier work
# iNOS [2] = experiment: iNOS expression in stimulated rat chondrosarcomas; type: cell-based; details: for inhibition of iNOS expression in rat chondrosarcomas: 72 h, added 1 h prior to cytokines; for effect on iNOS in rat chondrosarcomas: LPS/cytokine-stimulated, L-NMMA 500 μM, indomethacin 20 μM
# Method: NSAIDs were tested in: (FIG. 5A) rat chondrosarcomas stimulated with LPS, and (FIG. 5B) unstimulated OA cartilage (n=3).
# iNOS [3] = experiment: Nitrite accumulation in LPS-stimulated RAW 264.7 murine macrophages (Griess method); type: cell-based; details: for inhibition at 5 µM: RAW264.7, read-out: Nitrite released, % inhibition, 5 μM (Table 2: 5 μm)
# Method: Effects of NSAIDs on Nitrite Accumulation. […] The expression and activity of iNOS were monitored by estimation of the stable end-product: nitrites.
# concentrations of NSAIDs for 2 h followed by addition of 100 ng/ml of LPS
# After 16-18 h of incubation, the medium was used to estimate the
# accumulation of nitrite by the Greiss method (Green et al., Anal Biochem.
# (§1) The specific activity of iNOS was determined in cellfre
# (§2) extracts at a given time period as described. The nitrite and specific
# activity data are representative of mean ± SD value, as determined by
# student t test, for 10 and 4 independent experiments, respectively. The p
# values described are compared with LPSstimulated cells. […]
# OA-NOS [4] = experiment: Sensitivity of OA-NOS to agents (Table 3 comparison)
# [5] = rat adjuvant arthritis; cited from earlier work
# human chondrocyte iNOS = details: cited from earlier work
# NOS = details: cited from earlier work
# iNOS [6] = experiment: Specific activity of iNOS in cell-free extracts of RAW 264.7 cells exposed to drug during LPS induction; type: cell-based, murine
# Method: Assays for iNOS in Cell-Free Extracts. […] The reaction mixture for iNOS assay (in cell-free extracts) consists of Tris […] (pH 7.8); BSA 1 mg/ml; DTT 1 mM; CaCl2, 2 mM; FAD 10 μM; BH4 10 μM; L-arginine 30 μM; NADPH 1 mM. The assay mixture for cNOS consists of Tris 50 mM (pH 7.8); L-arginine 50 μM; calmodulin 10 μg/ml; BH4 10 μM; CaCl2 2 mM; NADPH 100 μM. RAW 264.7 cells were induced with LPS in the presence and absence of NSAIDs for 16-18 h. […] Cells were re-pelleted at 4° C. and resuspended in Tris buffer (10 mM, pH 7.4) containing 1 mg/ml each chymostatin, antipain, leupeptin and pepstatin, 1 mM DTT and 1 mM PMSF. Cells were lysed in a Polytron PT 1200 homogenizer (Kinematica AG, Switzerland) after 3 cycles of rapid freeze-thawing. The lysate was centrifuged at 16,000 rpm for 60 min at 4° C., and the supernatants were used as cell-free extracts. […] After 20 min the assays were terminated by heating the reaction mixture at 90° C. for 5 min. The precipitates were removed by centrifuging at 15,000 rpm for 20 min. Ten microliters (≈50,000 cpm) of the supernatant was spotted on activated Avicel TLC plates (Analtech, Newark, Del.). The TLC plates were developed in a solvent system consisting of ethanol:water:ammonia (80:16:4). Quantitation of the spot for L-[^3 3H]-citrulline was performed by a Bioscan System 200 Imaging Scanner. A phosphoimager can also be used for such quantification.
# as §1, §2
# iNOS [7] = experiment: iNOS protein expression, Western blot, LPS-treated RAW 264.7 cells; type: cell-based, murine
# Method: Western Blot Analysis. Equal amounts of protein (50 μg) estimated by BCA reagent (Pierce, Rockford, Ill.) were loaded onto SDS-PAGE gels and stained to verify the concentrations of various protein fractions by examining the intensities of the protein bands on the gels. Western blot analysis was carried out from the same cell extracts. The Western-blotted membrane was probed with a specific anti-iNOS monoclonal antibody, as specified by Transduction Laboratories (Lexington, Ky.). The blots were developed using the ECL Western blot system (Amersham, Arlington Heights, Ill.). Quantitation of the bands was performed using a densitometer from Molecular Dynamics (Sunnyville, Calif.).
# The protein expression data are represented as
# ND = not done. NS = not significant.
# A Western blot analysis of iNOS protein was carried out in cells treated with […] LPS in the presence and absence of NSAIDs for 16-18 h.
# OA-NOS [8] = experiment: Nitrite release by OA-affected articular cartilage, ex vivo organ culture; type: cell-based, human
# neutrophil = details: data not shown; read-out: ability to inhibit fMet-Leu-Phe-induced neutrophil aggregation (IC50); cited from earlier work
# NF-κB = details: cited from earlier work
# human iNOS = details: crude lysates; cited from earlier work
# [9] = systemic, rodent; cited from earlier work
# [10] = Mus musculus, LPS 100 ng/ml, 16-18 h
compound,measurement,setting,value
CC(=O)n1ccnc1 [N-acetylimidazole],inhibition of iNOS catalytic activity in cell-free extracts (specific activity in in vitro assay),iNOS [1]; 20 min preincubation,~ 74%
same,inhibition of iNOS catalytic activity in cell-free extracts (specific activity in in vitro assay),"iNOS [1]; 20 min preincubation, listed as NAI",74%
same,cyclooxygenase and peroxidase activity of COX,COX,inhibits both the cyclooxygenase and the peroxidase activity of COX
NC(=O)N1C(=O)/C(=C(\O)c2cccs2)c2cc(Cl)ccc21 [tenidap],inhibition of iNOS expression in rat chondrosarcomas,iNOS [2],~ 50%
same,effect on iNOS in rat chondrosarcomas,iNOS [2],significant inhibition of iNOS
"CC(=O)Nc1ccc(O)cc1 [Acetaminophen, acetaminophen]",block of nitrite production,"iNOS [3]; 60-120 μM, LPS-stimulated",1±1%
same,effect on iNOS in rat chondrosarcomas,iNOS [2],no significant effect on iNOS expression
TGF-β,sensitivity of OA-NOS,OA-NOS [4],insensitive; also recorded: not sensitive
N=C(N)NCCC[C@H](N)C(=O)O [L-arginine],"NO biosynthesis, paw swelling and histopathological changes in ankle joints",[5],competitively reversed the effect of L-NMMA
C[C@@H]1C[C@H]2[C@@H]3CCC4=CC(=O)C=C[C@]4(C)[C@@]3(F)[C@@H](O)C[C@]2(C)[C@@]1(O)C(=O)CO [dexamethasone],sensitivity of human chondrocyte iNOS,human chondrocyte iNOS,lack of sensitivity
same,"NOS expression in murine macrophages, endothelial cells and smooth muscles",NOS,abolishes NOS expression
CC(C)Cc1ccc(C(C)C(=O)O)cc1 (stereo not drawn) [ibuprofen],effect on iNOS in rat chondrosarcomas,iNOS [2],no significant effect on iNOS expression
"O=C([O-])c1ccccc1O.[Na+] [Sodium salicylate, sodium salicylate]","Nitrite released, Nitrite","iNOS [3]; 3 mM, LPS 100 ng/ml, 16-18 h",27.1 ± 8.8 µM
same,IC50,"iNOS [3]; Mus musculus, RAW264.7, read-out: IC50 with respect to nitrite accumulation",20 mM
same,inhibition at 3000 µM,"iNOS [3]; Mus musculus, RAW264.7, read-out: Nitrite released, % inhibition, 3 mM, LPS 100 ng/ml, 16-18 h",~7%
same,inhibition at 20000 µM,"iNOS [3]; Mus musculus, RAW264.7, read-out: inhibition of accumulation of nitrites, 20 mM, suprapharmacological",50%
same,inhibition at 5000 µM,"iNOS [3]; Mus musculus, RAW264.7, read-out: inhibition of nitrite accumulation, 5 mM, suprapharmacological",15 ± 1%
same,Specific activity of iNOS,iNOS [6]; 3 mM,304.0 ± 48.1 pmol/min/mg protein
same,inhibition at 3000 µM,"iNOS [6]; Mus musculus, RAW264.7, 16 h, read-out: Specific activity, % inhibition, 3 mM, cell-free extracts, 16 h",2%
same,effect on specific activity of iNOS,"iNOS [6]; NaSal 3 mM, indomethacin 5 μM (Table 1), therapeutic concentrations",did not inhibit
same,inhibition of iNOS catalytic activity in cell-free extracts (specific activity in in vitro assay),iNOS [1]; 20 min preincubation,~ 1%
same,effect on the catalytic activity of iNOS,"iNOS [1]; indomethacin 5 μM, sodium salicylate 1 mM",no significant differences; also recorded: no significant effect on the catalytic activity of iNOS
same,inhibition of iNOS expression,"iNOS [7]; 2-3 mM, variable in 4 independent experiments",0-35%
same,effect on iNOS expression at increased concentration,iNOS [7]; 5 and 20 mM,did not cause increased inhibition of iNOS expression
same,inhibition at 2000 µM,"iNOS [7]; Mus musculus, RAW264.7, read-out: inhibition of iNOS expression, 2 mM, Western blot, 16-18 h",~15%
same,inhibition at 3000 µM,"iNOS [7]; Mus musculus, RAW264.7, read-out: inhibition of iNOS protein expression, 3 mM, approximate, densitometry",~15%
same,inhibition of iNOS expression in rat chondrosarcomas,iNOS [2],~ 55%
same,effect on iNOS in rat chondrosarcomas,iNOS [2],significant inhibition of iNOS
same,effect on nitrite accumulation / NOS expression in OA cartilage,OA-NOS [8],blocked iNOS expression in OA cartilage
same,rank order of inhibition of spontaneous nitrite accumulation,OA-NOS [8],aspirin>indomethacin>sodium salicylate
same,IC50,neutrophil,3 mM
same,activation of NF-κB,"NF-κB; 5-20 mM, suprapharmacological",interfere in the activation of NF-κB
same,NF-κB-dependent transcription,"NF-κB; aspirin 3 mM, sodium salicylate 5 mM, luciferase reporter",inhibit NF-κB-dependent transcription
same,"NF-κB activation, gel shift assays",NF-κB; same concentrations (aspirin 3 mM; sodium salicylate 5 mM),no significant effect on NF-κB activation
same,COX inhibition,COX,an ineffective inhibitor of COX
same,sensitivity of OA-NOS,OA-NOS [4],inhibited; also recorded: shows sensitivity
"COc1ccc2c(c1)c(CC(=O)O)c(C)n2C(=O)c1ccc(Cl)cc1 [Indomethacin, indomethacin]",extent of inhibition of nitrite accumulation,iNOS [3],not appreciably greater than that seen with 5 μM
same,inhibition at 5 µM,iNOS [3]; [10],~7%
same,inhibition at 5 µM,"iNOS [6]; Mus musculus, RAW264.7, 16 h, read-out: Specific activity, % inhibition, 5 μM (Table 2: 5 μm), cell-free extracts, 16 h",2%
same,inhibition of iNOS specific activity in in vitro assay,"iNOS [1]; 5 μM, 20 min preincubation",0%
same,inhibition at 5 µM,"iNOS [7]; Mus musculus, RAW264.7, read-out: inhibition of iNOS protein expression, 5 μm (Table 2)",0%
same,rank order of inhibition of spontaneous nitrite accumulation,OA-NOS [8],aspirin>indomethacin>sodium salicylate
same,COX inhibition,COX,a potent inhibitor of COX
"C[C@]12CCC(=O)C=C1CC[C@@H]1[C@@H]2[C@@H](O)C[C@@]2(C)[C@H]1CC[C@]2(O)C(=O)CO [Hydrocortisone, hydrocortisone]","Nitrite released, % inhibition","iNOS [3]; 5 μM (Table 2: 5 μm), LPS 100 ng/ml, 16-18 h, 5 µM",63.0%
same,inhibition at 5 µM,iNOS [3]; [10],> 60%
same,effect on iNOS in rat chondrosarcomas,iNOS [2],no significant effect on iNOS expression
same,sensitivity of human chondrocyte iNOS,human chondrocyte iNOS,lack of sensitivity
same,"NOS expression in murine macrophages, endothelial cells and smooth muscles",NOS,abolishes NOS expression
same,sensitivity of OA-NOS,OA-NOS [4],insensitive; also recorded: not sensitive
"O=C(O)CN(CCN(CC(=O)O)CC(=O)O)CC(=O)O [EDTA, ethylenediaminetetraacetic acid]",human iNOS activity,human iNOS,markedly reduces
C[C@@H]1C[C@@H]([C@H](O)CC2CC(=O)NC(=O)C2)C(=O)[C@@H](C)C1 [cycloheximide],inhibition at 3.5 µM,"OA-NOS [8]; Homo sapiens, 3.5 μM, 24 h, read-out: inhibition of nitrite accumulation",> 90%
same,inhibition at 17.5 µM,"OA-NOS [8]; Homo sapiens, 17.5 μM, 24 h, read-out: inhibition of nitrite accumulation",> 90%
same,block of nitrite accumulation,"OA-NOS [8]; cycloheximide 35 μM or PDTC 30 μM, 24 h, cytokine/endotoxin-induced and control cartilage",> 90%
same,sensitivity of OA-NOS,OA-NOS [4],blocked; also recorded: shows sensitivity
N=C(N)NN [aminoguanidine],effect on nitrite accumulation / NOS expression in OA cartilage,OA-NOS [8],inhibited
same,sensitivity of OA-NOS,OA-NOS [4],blocked; also recorded: shows sensitivity
TNF-α,arthritis morbidity / protection,[9],increase arthritis morbidity
